Measured values reported in US9901637B2, “Vitamin D3 and analogs thereof for treating alopecia” (priority 2009, dated 2018).

What was measured:
[1] = system: chemotherapy-induced alopecia (CIA); details: neonatal rats, i.p. chemotherapy, recorded 10 days after last dose
Method: Specifically, Long Evans and Sprague Dawley rats with pups were purchased from Harlan Laboratories, Inc. They were housed and fed according to applicable animal handling rules and regulations. Pups were allowed to acclimate for 48 hours prior to the start of experiments. […] Rats were isolated from their littermates and mother for 6-hour periods of time. Subsequently, the treated area was cleaned with soap and water and pups were returned to their litters. On day 13, rats either received etoposide (1.5 mg/kg daily for 3 days) or cyclophosphamide (CTX) (37.5 mg/kg once) or combination cyclophosphamide (35 mg/kg once) and doxorubicin (2.5 mg/kg daily for 3 days). All chemotherapies were purchased from Sigma and were given intraperitoneally (i.p.) in a total volume of 0.1 mL. Alopecia was recorded 10 days after the last dose of chemotherapy.

[2] = system: chemotherapy-induced alopecia (CIA); assay: Alopecia in chloroleukemic rats receiving multi-course chemotherapy, topical calcitriol; details: for Extent of Alopecia: number of rats with grade 4+: rats treated with Cyclophosphamide (CTX), 4+=75-100% alopecia
Source text: Long Evans Rats (Harlan Laboratories, Inc) were 3 days old upon arrival. The weight of the animals was obtained upon arrival and every day until the conclusion of the experiments using an electronic scale (American Scientific Products TL 410s). Rats were housed for two days prior to the beginning of experiments. Animals were then randomized in four groups.
Treatments were started on day 6 after birth. […] Each application entailed rubbing an area of 2 cm^2 for 10 seconds with right index finger covered with a nitrile exam glove. After the completion of the treatments, each rat was individually separated for 6 hours. Subsequently each rat's head and back was washed with mild hand soap (Soft CIDE-EC from VWR International) and distilled water. Pups where then placed back with their mothers and taken back to the animal rooms. For the second anagen cycle, adult rats were placed back in their cages with their littermates and taken back to the animal rooms.
On day 23 after birth, a blood sample was taken from all rats and differentials were performed. Rats with leukemia were sacrificed while rats without leukemia were used for further experiments. A second differential was performed on day 31, and leukemic animals were sacrificed.
Vials of 1 mL were subdivided and kept in the refrigerator at 4° C. […] Unused preparations were disposed of.
For the second course of chemotherapy, rats received 20 mg/kg ADM on days 47 to 49 as described above.

MIAC51 = assay: Survival (cure) rate of chloroleukemic rats after two rounds of chemotherapy; type: in vivo, Long Evans Rats; details: rats treated with Cyclophosphamide (CTX), after Two Rounds of Chemotherapy
Method: Animals were then randomized in four groups. All rats received MIAC51 as described below.
On day 5 after birth all rats received 1×105 MIAC51 intraperitoneally in 0.1 ml of serum free (SF) RPMI. MIAC51 were cultured in RPMI 1640 supplemented with L-glutamine and 10% fetal bovine serum at […] in a 5% CO2, 100% humidity incubator. Cells were grown to 50% confluency (1.5×106 ml) collected in 50 ml conical tubes, centrifuged at 600 g for 10 minutes at room temperature and resuspended in SF-RPMI at a concentration of 1×10^6/ml prior to injection.

## O=P1(N(CCCl)CCCl)NCCCO1 (centres unmarked) [CTX, cyclophosphamide]
[1]
  alopecia in rats receiving chemotherapy without calcitriol: totally alopecic
[2]; chloroleukemic Long Evans rats, after the first round of chemotherapy
  extent of alopecia (grade) in all rats receiving chemotherapy alone: +4
[2]; after First Round of Chemotherapy
  Extent of Alopecia: number of rats with grade 4+: 40
[2]; after Second Round of Chemotherapy
  Extent of Alopecia: number of rats with grade 4+: 8
MIAC51
  Survival Rate, % cured: 20%
